Measurements as given in article PMC2749869, “Reversal of oncogene transformation and suppression of tumor growth by the novel IGF1R kinase inhibitor A-928605” (BMC Cancer, 2009).
Entries after “also recorded” stand apart in the source; their conditions may differ.

Legend:
IGF1R = IGF1R (Homo sapiens, UniProt P08069); test: In vitro kinase panel (kinome profile), IGF1R; type: biochemical
Experimental: (§1) Figure 1 Chemical structure and activity of A-928605. A, The chemical name of A-928605 is 3-(2-(2-chlorobenzyl)-1 H-benzo [d]imidazol-5-yl)-1-((1 r, 4 r)-4-morpholinocyclohexyl)-1 H-pyrazolo [3,4-d]pyrimidin-4-amine. B, Kinome profile analysis of A-928605 on 156 unique kinases. Heat map colors correspond to the relative Ki against each kinase, where Ki greater than 1,000 nM are colored green, near 100 nM are yellow and Ki of roughly 10 nM are shaded red.

IR = IR (Homo sapiens, UniProt P06213); test: In vitro kinase panel (kinome profile), IR; type: biochemical
Experimental: as §1

[1] = biological target: T1, epidermal growth factor receptor (EGFR) (Homo sapiens, UniProt P00533); test: Cellular EGFR phosphorylation in A-431 and HCC827 cells; type: cell-based; settings: A-431 cells; read-out: IC50 for inhibition of cellular EGFR phosphorylation
T1 construct: endogenous in cells; host or cells: A-431 and HCC827 cells

[2] = biological target: T2, epidermal growth factor receptor (EGFR) (Homo sapiens, UniProt P00533, DEL746-750); test: as above; type: cell-based; settings: HCC827 cells; read-out: IC50 for inhibition of cellular EGFR phosphorylation
T2 construct: endogenous in cells; host or cells: A-431 and HCC827 cells

CD8-IGF1R = biological target: T3, CD8-IGF1R (Homo sapiens, UniProt P01732+P08069); test: Western blot of IGF1R pathway phosphorylation and Cyclin D1 in NIH-3T3 CD8-IGF1R cells; type: cell-based, mouse; design: phosphorylation of the IGF1R cytotail, AKT and ERK1/2 / Cyclin D1 expression: dose or concentration left out as unconfirmed
T3 construct: cytoplasmic domain of human IGF1R (amino acids 959-1368); expressed in transfected cells
Experimental: NIH-3T3, SK-N-FI, MiaPaCa-2 and HCC827 cell lines were obtained from the American Type Culture Collection (ATCC, Manassas, VA). Cell lines were cultured and expanded in media according to ATCC guidelines. CD8-IGF1R was generated by an in-frame fusion of the extracellular and transmembrane domains of the human CD8α coding sequence (amino acids 1-207) followed by a BamHI restriction site to the cytoplasmic domain of human IGF1R (amino acids 959-1368). This product was cloned into the pIRESpuro3 vector (Clontech, Mountain View, CA) via AflII/NotI adaptors. NIH-3T3 CD8-IGF1R and vector control lines were generated by transfection of these constructs with FuGENE 6 (Roche Diagnostics, Basel, Switzerland) followed by selection with 2 μg/ml puromycin. Cells were dilution cloned and surviving colonies were screened for expression of the transgene. Cell clones positive for CD8-IGF1R expression and vector alone transfectants were pooled and remained under puromycin selection for the duration of the study.
Antibodies used included rabbit anti-ERK1/2 pTpY185/187 (Biosource, Camarillo, CA), rabbit anti-IGF-1Rβ and rabbit anti-Cyclin D1 (Santa Cruz Biotechnology, Inc., Santa Cruz, CA), rabbit anti-phospho-IGF-1Rβ (Tyr1135/1136)/IR (Tyr1150/1151), rabbit antiphospho-AKT (S473), rabbit anti-AKT, rabbit anti-ERK1/2, (Cell Signaling Technology, Inc., Beverly, MA) and mouse anti-ACTIN (Sigma, St. Louis, MO). All cell lysate samples were lysed directly in 2× LDS NuPAGE sample buffer with reducing reagent (Invitrogen, Carlsbad, CA) and were analyzed for levels of phosphorylated and total signaling proteins by Western blotting using the NuPAGE electrophoresis and transfer systems (Invitrogen, Carlsbad, CA) and near infrared detection.
All cells were grown in normal growth media containing 10% FBS. B, Cells were treated for 1 hour with A-928605 in a dose response analysis as shown. The CD8-IGF1R fusion protein runs as a doublet. […]

NIH-3T3 CD8-IGF1R cells [3] = test: Three day proliferation assay (MTS), NIH-3T3 CD8-IGF1R cells; type: cell-based
Experimental: (§2) Cells grown in soft agar were plated at 5,000 cells/well in 12-well tissue culture plates in a top layer of 0.3% noble agar on a 0.7% bottom layer. Media containing the final desired concentration of small molecule inhibitor was used as the agar overlay. For proliferation assays, 5,000 cells per well were plated in 96-well tissue culture treated plates and allowed to attach overnight. The following day small molecule inhibitors or DMSO control were added in duplicate at the indicated concentrations and cells were placed in tissue culture incubators for 72 hours. Cell viability was determined by an MTS assay (CellTiter Aqueous One, Promega, Madison, WI).
(§3) All cells were grown in normal growth media containing 10% FBS. B, Cells were treated for 1 hour with A-928605 in a dose response analysis as shown. The CD8-IGF1R fusion protein runs as a doublet. C and D, Three day proliferation assay in the NIH-3T3 vector control cells (C) or CD8-IGF1R cells (D) with increasing amounts of six clinical small molecule inhibitors and A-928605. Compounds were run in duplicate at each indicated concentration. Results are representative of 5 separate assays. Intended targets of each small molecule inhibitor are as follows: lapatinib, ERBB2 and EGFR; gefitinib, EGFR; dasatinib, ABL and SRC; Sorafinib, multi-targeted; imatinib, ABL and KIT; erlotinib, EGFR.

[4] = test system: NIH-3T3 vector control cells; test: Three day proliferation assay (MTS), NIH-3T3 vector control cells; type: cell-based; settings: 72 hours
Experimental: as §2, §3

NIH-3T3 CD8-IGF1R cells [5] = test: Soft agar anchorage-independent growth assay; type: cell-based; settings: 1 μM, three weeks
Experimental: as §2
Supplementary file 1471-2407-9-314-S2.jpeg: Additional File 2 Supplementary Figure S2. […] Cells were plated in soft agar with an overlay containing DMSO control (left) or a final concentration of 1 μM A-928605 (right). Cells were allowed to grow in a tissue culture incubator for three weeks before imaging. The 3T3 vector control line was not capable of anchorage-independent growth in soft agar (data not shown). Click here for file

NIH-3T3 CD8-IGF1R cells [6] = test: DNA microarray analysis, CD8-IGF1R cells; type: cell-based; settings: 1 μM, 24 hours
Experimental: Cells were treated with 1 μM of compound or DMSO control ([…] final concentration) and grown under normal conditions for 24 hours. Cells were then directly lysed in QIAzol RNA lysis reagent (Qiagen, Valencia, CA). Samples were homogenized using an Ultra Turrax T 25 homogenizer (IKA, Wilmington, SC) and then processed with the RNeasy 96 Universal Tissue 8000 kit (Qiagen, Valencia, CA) using a BioRobot 3000 liquid handler (Qiagen, Valencia, CA) and a Sigma 4K15C centrifuge (Sigma, Osterode am Harz, Germany) according to the Qiagen-prescribed protocol. […] GeneChip Operating Software (v1.4.036) was used to quantify perfect match and mismatch features on the scanned microarray images. After quantification, quality control was assured using the Affymetrix Power Tools Quality Reporter (v1.0.04) quality control metrics.
Data normalization and analysis were performed using Resolver 7.0 software (Rosetta Inpharmatics, Seattle, WA). Ratios were built for the average of each treatment versus the group average and a p-value was calculated for every-fold change using the Resolver Affymetrix error model. […]

CD8 IGF1R flank tumors = test: CD8-IGF1R xenograft flank model; type: in vivo, mice; settings: 50 mg/kg i.p. b.i.d. for 10 days, end of dosing (day 26)
Text: Figure 4 A-928605 abrogates modifications of IGF pathway signaling proteins in vitro and is efficacious in the CD8-IGF1R xenograft flank model in vivo. […] Cyclin D1 is a transcriptional target of the IGF signaling pathway and is therefore not affected by this one hour treatment.

SK-N-FI cells = test: SK-N-FI proliferation in vitro; type: cell-based, human; settings: SK-N-FI cell line
Experimental: as §2

[7] = test system: SK-N-FI renal subcapsule tumors; test: SK-N-FI neuroblastoma renal subcapsule xenograft model; type: in vivo, mice; settings: 37.5 mg/kg i.p. b.i.d. for 14 days, end of dosing (day 28)
Experimental: For SK-N-FI renal subcapsule tumors, mice were anesthetized with intramuscular injections of ketamine (40 mg/kg) and rompum (5 mg/kg) before surgery. […] The peritoneal cavity was closed with 4-0 suture and skin incision was closed with clip. Fourteen days after tumor cell injection, tumor growth was assessed in cohort mice by necropsy (see Figure 1B) and study mice were reassigned at that time to treatment groups (N = 10) based on injection order. At the end of the dosing period, tumor weight was determined by comparing the weight of the tumor bearing kidney to that of the contralateral kidney.
Figure 5 Efficacy of A-928605 in the SK-N-FI neuroblastoma xenograft as a renal subcapsule model. A, A-928605 inhibits proliferation of SK-N-FI cells in vitro. […] B, Representative photograph taken of the tumor bearing and contralateral kidneys prior to the initiation of dosing on day 14 post tumor cell injection, indicating a tumor weight of 0.07 g. C, Representative photograph taken of the tumor bearing and contralateral kidneys at the end of the dosing schedule (day 28).

MiaPaCa-2 flank tumors = test: MiaPaCa-2 pancreatic xenograft flank model; type: in vivo, mice; settings: A-928605 37.5 mg/kg i.p. b.i.d. 20 days; cetuximab 30 mg/kg i.p. 3×/week, 6 doses
Experimental: All animal studies were conducted in accordance with the guidelines established by the internal Institutional Animal Care and Use Committees. For CD8 IGF1R flank tumors, 5.0 × 10^5 cells/mouse were mixed with an equal volume of Matrigel (BD Biosciences) and injected subcutaneously into the flank of 6- to 8-week-old female nu/nu mice (22 g; Charles River Laboratories). The tumors were allowed to grow approximately 225 mm^3, and mice were reassigned into treatment groups (N = 10) based on tumor volume. At the initiation of treatment, the mean tumor volume ± SEM of the groups was approximately 231 ± 10 mm^3. For MiaPaCa-2 flank tumors, 1.0 × 10^6 cells/mouse were mixed with an equal volume of Matrigel and injected subcutaneously into the flank of 6- to 8-week-old female SCID mice (20 g; Charles River Laboratories). The tumors were allowed to grow approximately 225 mm^3, and mice were reassigned into treatment groups (N = 10) based on tumor volume. […] In all flank models, tumor growth was periodically analyzed by measurement with digital calipers and tumor volume was estimated from the formula (L × W ^2)/2. For all flank models, the effect of treatment on tumor growth rate was assessed by determining %T/C [(mean tumor volume of treated group on day X ÷ mean tumor volume of control group on day X) × 100]. […]

IGF1R and IR = test: IGF1R versus IR in vitro enzyme activity and cellular phosphorylation; settings: in vitro enzyme activity and cellular phosphorylation (data not shown)
NIH-3T3 CD8-IGF1R cells [8] = test: Morphology of CD8-IGF1R cells (phase contrast imaging); type: cell-based; settings: increasing concentrations, imaging two days after addition
Experimental: Supplementary file 1471-2407-9-314-S1.jpeg: Additional File 1 Supplementary Figure S1. Transformed morphology of the CD8-IGF1R cells. A, Phase contrast images of the NIH-3T3 vector control cells versus the NIH-3T3 CD8-IGF1R cells. B, Morphological dose response of the CD8-IGF1R line to A-928605 treatment. Cells were plated and allowed to adhere and proliferate overnight. The next day compound was added and imaging was performed two days later. The cellular morphology appears to revert back towards a naive 3T3 fibroblast at concentrations near or […] the IC50 of A-928605. All images were captured with a 20× objective. Click here for file

HCC-827 flank tumors = test: HCC-827 NSCLC xenograft flank model
Experimental: All animal studies were conducted in accordance with the guidelines established by the internal Institutional Animal Care and Use Committees. For CD8 IGF1R flank tumors, 5.0 × 10^5 cells/mouse were mixed with an equal volume of Matrigel (BD Biosciences) and injected subcutaneously into the flank of 6- to 8-week-old female nu/nu mice (22 g; Charles River Laboratories). The tumors were allowed to grow approximately 225 mm^3, and mice were reassigned into treatment groups (N = 10) based on tumor volume. At the initiation of treatment, the mean tumor volume ± SEM of the groups was approximately 231 ± 10 mm^3. For MiaPaCa-2 flank tumors, 1.0 × 10^6 cells/mouse were mixed with an equal volume of Matrigel and injected subcutaneously into the flank of 6- to 8-week-old female SCID mice (20 g; Charles River Laboratories). The tumors were allowed to grow approximately 225 mm^3, and mice were reassigned into treatment groups (N = 10) based on tumor volume. At the initiation of treatment, the mean tumor volume ± SEM of the groups was approximately 210 ± 30 mm^3. […] The tumors were allowed to grow approximately 225 mm^3, and mice were reassigned into treatment groups (N = 10) based on tumor volume. At the initiation of treatment, the mean tumor volume ± SEM of the groups was approximately 300 ± 20 mm^3. In all flank models, tumor growth was periodically analyzed by measurement with digital calipers and tumor volume was estimated from the formula (L × W ^2)/2. For all flank models, the effect of treatment on tumor growth rate was assessed by determining %T/C [(mean tumor volume of treated group on day X ÷ mean tumor volume of control group on day X) × 100].
Erlotinib was dosed orally at 3.1 mg/kg, b.i.d. for 16 days.

T3 sequence (P01732+P08069 fused): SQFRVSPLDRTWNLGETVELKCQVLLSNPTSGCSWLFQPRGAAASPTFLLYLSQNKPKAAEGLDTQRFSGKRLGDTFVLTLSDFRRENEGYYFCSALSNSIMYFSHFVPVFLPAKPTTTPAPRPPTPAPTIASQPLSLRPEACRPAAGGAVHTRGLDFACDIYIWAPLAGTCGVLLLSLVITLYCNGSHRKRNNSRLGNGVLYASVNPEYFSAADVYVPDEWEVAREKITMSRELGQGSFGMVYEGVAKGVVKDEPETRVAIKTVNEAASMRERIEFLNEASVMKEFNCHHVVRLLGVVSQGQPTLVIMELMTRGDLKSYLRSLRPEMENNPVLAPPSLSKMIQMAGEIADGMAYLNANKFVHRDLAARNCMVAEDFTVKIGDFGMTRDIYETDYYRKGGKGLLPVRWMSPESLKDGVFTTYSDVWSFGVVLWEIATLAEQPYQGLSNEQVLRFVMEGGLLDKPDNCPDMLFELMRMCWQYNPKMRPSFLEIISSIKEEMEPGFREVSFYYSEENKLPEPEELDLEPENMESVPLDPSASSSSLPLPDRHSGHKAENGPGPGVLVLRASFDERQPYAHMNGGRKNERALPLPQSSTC
Chain of IGF1R (P08069 31-1367, species assumed): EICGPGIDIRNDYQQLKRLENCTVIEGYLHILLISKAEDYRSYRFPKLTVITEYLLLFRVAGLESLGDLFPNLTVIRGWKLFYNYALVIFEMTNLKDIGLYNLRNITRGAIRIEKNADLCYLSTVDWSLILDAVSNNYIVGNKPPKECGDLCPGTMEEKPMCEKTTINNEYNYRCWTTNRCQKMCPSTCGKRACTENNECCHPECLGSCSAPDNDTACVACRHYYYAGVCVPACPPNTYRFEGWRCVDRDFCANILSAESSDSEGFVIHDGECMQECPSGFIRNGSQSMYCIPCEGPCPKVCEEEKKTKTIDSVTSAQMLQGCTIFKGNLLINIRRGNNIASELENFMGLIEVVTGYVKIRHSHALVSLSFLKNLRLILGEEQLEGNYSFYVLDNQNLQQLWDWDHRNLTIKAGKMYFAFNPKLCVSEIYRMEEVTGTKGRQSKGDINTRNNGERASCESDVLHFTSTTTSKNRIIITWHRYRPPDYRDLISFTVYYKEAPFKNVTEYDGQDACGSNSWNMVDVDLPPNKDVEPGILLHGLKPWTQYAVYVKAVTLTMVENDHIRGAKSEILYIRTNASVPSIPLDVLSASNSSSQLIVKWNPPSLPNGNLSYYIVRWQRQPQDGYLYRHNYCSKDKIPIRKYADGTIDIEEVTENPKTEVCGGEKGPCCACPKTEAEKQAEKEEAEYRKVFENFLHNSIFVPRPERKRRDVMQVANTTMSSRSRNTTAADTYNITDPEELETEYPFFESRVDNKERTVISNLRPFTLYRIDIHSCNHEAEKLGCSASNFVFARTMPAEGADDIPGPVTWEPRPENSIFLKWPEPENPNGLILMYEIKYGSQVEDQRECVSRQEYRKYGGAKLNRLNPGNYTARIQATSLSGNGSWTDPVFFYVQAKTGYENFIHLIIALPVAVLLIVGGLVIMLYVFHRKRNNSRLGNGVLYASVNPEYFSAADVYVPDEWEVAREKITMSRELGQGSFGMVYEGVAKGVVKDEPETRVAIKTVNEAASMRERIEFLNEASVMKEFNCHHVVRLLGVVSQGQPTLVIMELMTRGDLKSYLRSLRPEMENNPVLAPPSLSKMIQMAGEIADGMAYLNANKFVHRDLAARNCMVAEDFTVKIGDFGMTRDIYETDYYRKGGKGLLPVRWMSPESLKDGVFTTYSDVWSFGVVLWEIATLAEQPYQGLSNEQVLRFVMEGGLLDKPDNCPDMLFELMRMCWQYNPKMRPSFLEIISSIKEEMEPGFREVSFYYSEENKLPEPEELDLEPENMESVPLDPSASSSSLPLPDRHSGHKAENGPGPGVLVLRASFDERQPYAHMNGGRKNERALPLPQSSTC
T2 sequence (P00533 with tags, fused parts or gaps DEL746-750): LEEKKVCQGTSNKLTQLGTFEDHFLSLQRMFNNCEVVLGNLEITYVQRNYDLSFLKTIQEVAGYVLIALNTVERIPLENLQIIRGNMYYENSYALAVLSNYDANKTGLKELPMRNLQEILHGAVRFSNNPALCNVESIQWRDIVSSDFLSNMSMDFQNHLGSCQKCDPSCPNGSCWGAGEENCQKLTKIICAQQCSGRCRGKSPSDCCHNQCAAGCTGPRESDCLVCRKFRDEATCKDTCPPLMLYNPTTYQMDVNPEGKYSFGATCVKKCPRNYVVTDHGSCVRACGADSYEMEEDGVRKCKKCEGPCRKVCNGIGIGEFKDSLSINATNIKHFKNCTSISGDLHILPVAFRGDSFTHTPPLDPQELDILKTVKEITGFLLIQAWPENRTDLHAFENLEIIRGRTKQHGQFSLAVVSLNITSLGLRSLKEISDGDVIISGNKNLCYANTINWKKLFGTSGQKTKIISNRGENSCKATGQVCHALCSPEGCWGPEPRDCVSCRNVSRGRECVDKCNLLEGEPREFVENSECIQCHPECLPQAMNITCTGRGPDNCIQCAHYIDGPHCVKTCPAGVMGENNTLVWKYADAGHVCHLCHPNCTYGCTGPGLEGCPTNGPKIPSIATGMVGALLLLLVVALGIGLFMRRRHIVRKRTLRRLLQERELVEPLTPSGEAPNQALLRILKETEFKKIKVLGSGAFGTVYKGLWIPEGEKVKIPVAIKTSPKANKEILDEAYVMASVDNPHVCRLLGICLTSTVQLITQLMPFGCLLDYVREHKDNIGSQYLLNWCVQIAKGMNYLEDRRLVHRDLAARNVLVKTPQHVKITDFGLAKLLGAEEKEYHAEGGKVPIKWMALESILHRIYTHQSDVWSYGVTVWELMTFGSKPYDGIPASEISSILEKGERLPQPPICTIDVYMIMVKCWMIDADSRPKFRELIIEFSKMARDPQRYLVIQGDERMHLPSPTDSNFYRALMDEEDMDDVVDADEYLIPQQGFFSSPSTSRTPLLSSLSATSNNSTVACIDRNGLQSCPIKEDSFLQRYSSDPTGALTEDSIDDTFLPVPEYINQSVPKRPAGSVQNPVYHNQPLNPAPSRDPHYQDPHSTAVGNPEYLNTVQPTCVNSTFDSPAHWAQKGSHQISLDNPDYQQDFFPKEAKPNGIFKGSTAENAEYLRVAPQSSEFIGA
T1 sequence (P00533 25-1210): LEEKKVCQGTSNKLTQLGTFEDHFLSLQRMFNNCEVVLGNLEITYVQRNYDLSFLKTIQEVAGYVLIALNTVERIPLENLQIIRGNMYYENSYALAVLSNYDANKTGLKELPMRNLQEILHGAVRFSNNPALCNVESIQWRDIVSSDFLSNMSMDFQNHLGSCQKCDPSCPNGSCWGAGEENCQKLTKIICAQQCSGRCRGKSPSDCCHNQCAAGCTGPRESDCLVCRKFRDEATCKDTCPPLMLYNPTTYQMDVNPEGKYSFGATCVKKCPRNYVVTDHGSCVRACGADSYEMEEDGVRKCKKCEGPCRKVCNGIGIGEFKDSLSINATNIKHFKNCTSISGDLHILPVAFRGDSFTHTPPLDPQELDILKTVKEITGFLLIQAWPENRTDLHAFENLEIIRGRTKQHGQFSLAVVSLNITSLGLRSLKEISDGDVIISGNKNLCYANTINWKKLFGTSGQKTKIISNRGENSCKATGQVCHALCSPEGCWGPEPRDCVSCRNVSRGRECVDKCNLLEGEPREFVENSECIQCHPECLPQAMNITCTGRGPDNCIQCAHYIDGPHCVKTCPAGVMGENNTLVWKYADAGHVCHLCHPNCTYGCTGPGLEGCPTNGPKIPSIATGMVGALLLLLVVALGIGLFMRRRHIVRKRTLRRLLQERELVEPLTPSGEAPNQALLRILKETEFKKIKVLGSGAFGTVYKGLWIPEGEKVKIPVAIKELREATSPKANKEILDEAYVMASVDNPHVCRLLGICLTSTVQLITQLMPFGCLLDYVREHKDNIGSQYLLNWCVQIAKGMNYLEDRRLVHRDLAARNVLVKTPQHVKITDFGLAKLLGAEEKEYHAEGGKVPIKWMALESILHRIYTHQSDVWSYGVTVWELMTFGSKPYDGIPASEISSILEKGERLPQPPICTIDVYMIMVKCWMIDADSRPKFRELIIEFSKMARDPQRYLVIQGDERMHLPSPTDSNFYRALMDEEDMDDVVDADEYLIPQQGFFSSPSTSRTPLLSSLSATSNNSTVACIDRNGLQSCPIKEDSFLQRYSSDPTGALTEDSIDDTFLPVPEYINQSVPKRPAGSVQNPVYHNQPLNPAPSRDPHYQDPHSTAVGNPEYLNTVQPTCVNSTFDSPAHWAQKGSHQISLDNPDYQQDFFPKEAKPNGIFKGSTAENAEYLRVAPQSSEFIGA

Question: Which results are given for Nc1ncnc2c1c(-c1ccc3[nH]c(Cc4ccccc4Cl)nc3c1)nn2[C@H]1CC[C@H](N2CCOCC2)CC1 [A-928605, 3-(2-(2-chlorobenzyl)-1 H-benzo [d]imidazol-5-yl)-1-((1 r, 4 r)-4-morpholinocyclohexyl)-1 H-pyrazolo [3,4-d]pyrimidin-4-amine]?
Answer: Ki (IGF1R): < 10 nM; Ki (IR): < 10 nM; IC50 [1]: > 10000 nM; IC50 [2]: > 10000 nM; Cyclin D1 expression (CD8-IGF1R; 24-hours of treatment): significant decrease; IC50 (CD8-IGF1R; CD8-IGF1R cell line, 1 hour treatment, inhibition near known cellular IC50, read-out: cellular phosphorylation IC50 (dose-dependent inhibition of IGF1R phosphorylation)): ~100 nM; phosphorylation of the IGF1R cytotail, AKT and ERK1/2 (CD8-IGF1R; one hour of treatment, CD8-IGF1R cells): inhibition of phosphorylation; IC50 (NIH-3T3 CD8-IGF1R cells [3]; Mus musculus, NIH3T3, CD8-IGF1R cells, 72 hours, read-out: IC50, inhibition of cellular proliferation): < 300 nM; effect on cellular proliferation [4]: little effect; inhibition of anchorage-independent growth in soft agar (NIH-3T3 CD8-IGF1R cells [5]): completely inhibiting; also recorded: inhibits growth; decrease in Ccn d1 transcripts (NIH-3T3 CD8-IGF1R cells [6]): 4.8 fold; up-regulation of Cdkn1a (p21) (NIH-3T3 CD8-IGF1R cells [6]): 1.5 fold; %T/C (tumor volume, treated vs. vehicle) (CD8 IGF1R flank tumors): 21%; inhibition of proliferation in vitro (SK-N-FI cells): effectively inhibit proliferation; %T/C (tumor weight, treated vs. vehicle) [7]: 58%; %T/C, monotherapy compared to appropriate controls (MiaPaCa-2 flank tumors): approximately 80%; IC50s against IGF1R versus IR (IGF1R and IR): roughly equipotent; transformed phenotype (morphology) (NIH-3T3 CD8-IGF1R cells [8]): reversal of their transformed phenotype; tumor response in words (HCC-827 flank tumors; size-matched HCC827 xenografts, 16 days dosing): not consistently statistically different from its vehicle control; also recorded: partial responses

Question: How did the “effect on cellular proliferation” value (NIH-3T3 CD8-IGF1R cells [3]; CD8-IGF1R line, concentrations up to 10 μM) turn out when Cc1nc(Nc2ncc(C(=O)Nc3c(C)cccc3Cl)s2)cc(N2CCN(CCO)CC2)n1 [Dasatinib, reference compound] was run?
Answer: The value was “no effect”.

Question: And the “effect on cellular proliferation” value [4]?
Answer: Its value is “potent inhibitor”.

Question: For C#Cc1cccc(Nc2ncnc3cc(OCCOC)c(OCCOC)cc23)c1 [erlotinib, reference compound], which “tumor response in words” value (HCC-827 flank tumors; mouse, in vivo) is on record?
Answer: The value was “partial responses”.
